Tested on: colitis induced by trinitrobenzene sulfonic acid (TNBS)
Assay: in vivo test: TNBS-induced colitis in rats, intracolonic treatment
Settings: for Colon weight: 10 cm distal colon; for Colon weight / Macroscopic score / Necrosis areas (Mucosal Damage Area, MDA): day 4; for Body weight variation / Final body weight: days 1-3, day 4; for Macroscopic score / Necrosis areas (Mucosal Damage Area, MDA): distal colon
Protocol: 70 Wister male rats were kept fasted for 20 hours before the induction of colitis. In the morning of the experiment (day 0), the rats were injected with a 40% solution of ethanol containing 30 mg of trinitrobenzene sulfonic acid (TNBS) by means of a single intracolonic injection. On days 1, 2 and 3 after the induction of colitis, Dalteparin sodium suspended in 0.25 mL of a 1% sodium cholate in saline (0.3 mg/rat, 0.6 mg/rat and 0.9 mg/rat), or 0.25 mL of vehicle (1% sodium cholate in saline) were instilled intracolonically. An additional group constituted by 4 untreated rats was also included. On day 4 from the induction of colitis, animals were euthanized and autopsy was performed. The colon have been isolated and 10 cm of the distal portion have been resected and weighted. […] The results, summarized in the table below, have been compared with those obtained from the control animals.

[1] = 0.6 mg/rat/die intracolonic, listed as dalteparin sodium

Substance: Dalteparin sodium
- Mortality (0.3 mg/rat/die intracolonic): 0%
- Colon weight (0.3 mg/rat/die intracolonic): 1.72 ± 0.30 g
- Colon weight (0.3 mg/rat/die intracolonic, listed as dalteparin sodium): 1.72 ± 0.30 g
- Body weight variation (0.3 mg/rat/die intracolonic): −21%
- Final body weight (0.3 mg/rat/die intracolonic): 166 ± 14 g
- Macroscopic score (0.3 mg/rat/die intracolonic): 5.6 ± 0.52
- Necrosis areas (Mucosal Damage Area, MDA) (0.3 mg/rat/die intracolonic): 463.4 ± 89.6 mm^2
- Mortality (0.6 mg/rat/die intracolonic): 10%
- Colon weight (0.6 mg/rat/die intracolonic): 1.80 ± 0.38 g
- Body weight variation (0.6 mg/rat/die intracolonic): −15%
- Final body weight (0.6 mg/rat/die intracolonic): 180 ± 17 g
- Macroscopic score (0.6 mg/rat/die intracolonic): 4.9 ± 1.05
- Necrosis areas (Mucosal Damage Area, MDA) (0.6 mg/rat/die intracolonic): 309.9 ± 155.8 mm^2
- Macroscopic score [1]: 4.9±1.05
- Necrosis areas (Mucosal Damage Area, MDA) [1]: 309.9±155.8 mm^2
- Mortality (0.9 mg/rat/die intracolonic): 10%
- Colon weight (0.9 mg/rat/die intracolonic): 1.76 ± 0.22 g
- Colon weight (0.9 mg/rat/die intracolonic, listed as dalteparin sodium): 1.76 ± 0.22 g
- Body weight variation (0.9 mg/rat/die intracolonic): −17%
- Final body weight (0.9 mg/rat/die intracolonic): 176 ± 15 g
- Macroscopic score (0.9 mg/rat/die intracolonic): 5.8 ± 0.44
- Necrosis areas (Mucosal Damage Area, MDA) (0.9 mg/rat/die intracolonic): 492.5 ± 104.6 mm^2
- overall effect of treatment on the considered parameters (0.3, 0.6 and 0.9 mg/rat intracolonic, versus vehicle control group): effective in reducing all the considered parameters

Source: patent US20140127292A1, “PHARMACEUTICAL COMPOSITIONS FOR THE ORAL ADMINISTRATION OF HEPARIN OR DERIVATIVES THEREOF” (Cosmo Technologies Limited, priority 2001, published 2014)
